Several values for one entry are separate records, joined by “and”; a condition that tells them apart may be missing. Equal entries are not always repeated. Structures can show the parent of a compound that is named as a salt.
Experiments:
[1] = test system: patients who met the 1990 ACR criteria for fibromyalgia syndrome; experiment: Example 1 study: MASQ total score (cognitive function), change from baseline; format: in vivo, human; set-up: MASQ Total Score - Change from Baseline: scale not given here
Experimental: (§1) This was a multi-center, randomized, double-blinded, placebo-controlled three-arm study, which enrolled 888 patients who met the 1990 ACR criteria for fibromyalgia syndrome as well as the more detailed admission criteria outlined in the protocol.
(§2) All randomized medications (placebo and milnacipran) were administered in a split-dose (BID) fashion. The doses were administered in a dose escalation regimen as outlined below:
d. FMS Status Assessments: Patient pain 24 hour and 7 day recall VAS, the SF-36, Multiple Ability Self-report Questionnaire (MAS Q, cognitive function), the Multidimensional Health Assessment Questionnaire (MDHAQ) and the Multidimensional Fatigue Inventory (MFI). Diary assessments include current pain (morning, random daily, and evening reports); daily recall pain (morning report); medications taken (evening report); overall pain past week (weekly report), overall fatigue in the last week (weekly report), and the extent that pain kept the patient from caring for themselves (weekly report).
The MASQ is a brief self-report questionnaire, which includes 5 cognitive domains: language ability, visuo-perceptual ability, verbal memory, visual memory, and attention/concentration (Seidenberg et al., J Clin & Exp Neuropsychology 1994; 16:93-104). The MASQ has been validated in both normal subjects and patient groups having cognitive difficulties in the assessment domains.

[2] = test system: patients who meet the 1990 ACR criteria for fibromyalgia syndrome; experiment: Example 2 study: MASQ total score, 3-month treatment period; format: in vivo, human; set-up: MASQ total score, Actual, Mean / MASQ total score, Change from baseline, Mean / MASQ total score, Actual, Median / MASQ total score, Change from baseline, Median: scale not given here; details: for MASQ total score change, Difference from Placebo / MASQ total score, Change from baseline, LS Mean (SE): 3-month (LOCF), ITT, ANCOVA model; for MASQ total score, Actual, Mean / MASQ total score, Actual, Median / MASQ total score, Change from baseline, Mean / MASQ total score, Change from baseline, Median: 3-month treatment period (LOCF), intent-to-treat
Experimental: This was a multicenter, randomized, double-blind, placebo-controlled three-arm study designed which enrolled 1196 patients who meet the 1990 ACR criteria for fibromyalgia syndrome (history of widespread pain and pain in 11 of 18 tender point sites on digital palpation), as well as the more detailed admission criteria outlined in the protocol.
All randomized medications (placebo and milnacipran) were administered twice a day (BID).
(iii) Additional Efficacy Measurements: The Fibromyalgia Impact Questionnaire (FIQ) total score and physical function, Beck Depression Inventory (BDI), the MOS-Sleep Index Scale, the Arizona Sexual Experiences Scale (ASEX), Patient pain 24 hour and 7 day recall VAS, the SF-36 individual domains, Patient Global Disease Status, Patient Global Therapeutic Benefit, the Multiple Ability Self-report Questionnaire (MASQ, cognitive function), the Multidimensional Health Assessment Questionnaire (MDHAQ), Multidimensional Fatigue Inventory (MFI), and diary assessments including current pain (morning, random daily, and evening reports); overall pain past week (weekly report), overall fatigue in the last week (weekly report), and the extent that pain kept the patient from caring for themselves (weekly report).

fibromyalgia patients [3] = details: cited from earlier work
[4] = test system: patients who met the 1990 ACR criteria for fibromyalgia syndrome; experiment: Example 1 study: composite responder analysis for pain of fibromyalgia (pain reduction plus PGIC); format: in vivo, human; details: for Responders for the treatment of the pain of fibromyalgia, % = m/n: observed cases (OC), hydrochloride; for Responders for the treatment of the pain of fibromyalgia, m (number of responders): observed cases
Experimental: as §1, §2
The primary endpoint of this study was a composite responder analysis implementing analysis of three domains of interest, evaluated at […]. The domains measured were:
1) pain (measured by an electronic diary as a daily recall pain score, calculated to weekly average scores)
2) patient global (measured by the PGIC, 1-7 scale)
For the primary analysis, the pain domain score was determined by a calculation that compared the average of treatment weeks 14 and 15 to the two baseline weeks, and treatment weeks 26 and 27 vs. baseline for the secondary analysis. The last observation was carried forward if neither the week 14 nor week 15 (or week 26/27) patient self-reported pain score is available to compare to the baseline value.
A responder was defined as a subject who experienced a greater than 30% reduction in pain from baseline and improvement on the PGIC.
See Table 1 for a summary of the results in the Intent-to-Treat Population and Table 2 for a summary of the Last Observation Carried Forward (LOCF), Baseline Observation Carried Forward (BOCF) and study completer (OC) populations. LOCF is an analysis in which observations are carried forward to the last time point for patients who dropped out. The LOCF analysis treats the carried-forward data as observed data at the last time point. BOCF is an analysis that requires that the patient remain active in the trial to be evaluated for response. If a patient withdraws from the trial for any reason they are classed as a non-responder irregardless of their pain and global scores at the time of withdrawal.

fibromyalgia patients [5] = details: cited from earlier work; remark: listed apart in the source
[6] = test system: subjects suffering from fibromyalgia syndrome; details: cited from earlier work; for Subjects with significant clinical improvement: after one month; for Difference between treatment group and placebo: at three months
patients with FMS = details: open-label, cited from earlier work

## CCN(CC)C(=O)C1(c2ccccc2)CC1CN (racemic) [milnacipran, Z-2-aminomethyl-1-phenyl-N,N-diethylcyclopropanecarboxamide hydrochloride]
[1]; 100 mg/day vs placebo
  Treatment of cognitive dysfunction associated with FMS (change in MASQ total score), comparison with placebo: superior to placebo
[1]; 100 mg, treatment week 3
  MASQ Total Score - Change from Baseline: −0.39
[1]; 100 mg, treatment week 7
  MASQ Total Score - Change from Baseline: −0.34
[1]; 100 mg, treatment week 11
  MASQ Total Score - Change from Baseline: −1.33
[1]; 100 mg, treatment week 15
  MASQ Total Score - Change from Baseline: −1.18
[1]; 100 mg, treatment week 19
  MASQ Total Score - Change from Baseline: −1.60
[1]; 100 mg, treatment week 23
  MASQ Total Score - Change from Baseline: −0.89
[1]; 100 mg, treatment week 27
  MASQ Total Score - Change from Baseline: −1.07
[1]; 200 mg/day vs 100 mg/day
  Treatment of cognitive dysfunction associated with FMS (change in MASQ total score), 200 mg/day compared with 100 mg/day: superior to milnacipran 100 mg/day
[1]; 200 mg/day vs placebo
  Treatment of cognitive dysfunction associated with FMS (change in MASQ total score), comparison with placebo: superior to placebo
[1]; 200 mg, treatment week 3
  MASQ Total Score - Change from Baseline: −1.60
[1]; 200 mg, treatment week 7
  MASQ Total Score - Change from Baseline: −1.77
[1]; 200 mg, treatment week 11
  MASQ Total Score - Change from Baseline: −1.73
[1]; 200 mg, treatment week 15
  MASQ Total Score - Change from Baseline: −1.76
[1]; 200 mg, treatment week 19
  MASQ Total Score - Change from Baseline: −1.63
[1]; 200 mg, treatment week 23
  MASQ Total Score - Change from Baseline: −1.52
[1]; 200 mg, treatment week 27
  MASQ Total Score - Change from Baseline: −1.89
[2]; 100 mg
  MASQ total score change, Difference from Placebo: −1.13
  MASQ total score, Change from baseline, LS Mean (SE): −3.93 (0.786)
  MASQ total score, Actual, Mean: 88.86
  MASQ total score, Actual, Median: 89.0
  MASQ total score, Change from baseline, Mean: −3.34
  MASQ total score, Change from baseline, Median: −3.0
[2]; 200 mg
  MASQ total score change, Difference from Placebo: −1.12
  MASQ total score, Change from baseline, LS Mean (SE): −4.51 (0.797)
  MASQ total score, Actual, Mean: 89.63
  MASQ total score, Actual, Median: 90.5
  MASQ total score, Change from baseline, Mean: −3.75
  MASQ total score, Change from baseline, Median: −3.0
Fibromyalgia patients [3]; Phase II study
  Deaths or serious adverse events associated with treatment: no deaths or serious adverse events
Fibromyalgia patients [3]; milnacipran-treated patients
  Patients with adverse events from elevation in hepatic enzymes: 2%
[4]; 100 mg/day BID, treatment weeks 14-15 (3 month)
  Responders for the treatment of the pain of fibromyalgia, % = m/n: 53.33% and 53.3%
[4]; 100 mg/day BID, treatment weeks 14-15 (3 month), listed as Milnacipran
  Responders for the treatment of the pain of fibromyalgia, % = m/n: 53.33%
[4]; 100 mg/day BID, treatment weeks 26-27 (6 month)
  Responders for the treatment of the pain of fibromyalgia, % = m/n: 49.59% and 49.6%
[4]; 100 mg/day BID, treatment weeks 26-27 (6 month), listed as Milnacipran
  Responders for the treatment of the pain of fibromyalgia, % = m/n: 49.59%
[4]; 100 mg/day vs 200 mg/day, continued administration
  Long-term treatment of fibromyalgia and some of its symptoms, low dose compared with high dose: almost as effective as continued administration of high-dose milnacipran
[4]; 100 mg/day, treatment weeks 14-15, n = 135
  Responders for the treatment of the pain of fibromyalgia, m (number of responders): 72
[4]; 100 mg/day, treatment weeks 26-27, n = 121
  Responders for the treatment of the pain of fibromyalgia, m (number of responders): 60
[4]; 100 mg, 3 month
  Individual component responder rate, PGIC (LOCF): 54.0%
  Individual component responder rate, Pain (LOCF): 35.7%
  Pain composite responder rate, Sensitivity Analysis I (BOCF): 32.1%
  Pain composite responder rate, Sensitivity Analysis II: 32.%
  Pain composite responder rate, Sensitivity Analysis III: 32.1%
[4]; 100 mg, 3 month, N = 224
  Pain composite responder rate, Primary Analysis (LOCF): 33.5%
[4]; 100 mg, 6 month
  Individual component responder rate, PGIC (LOCF): 49.6%
  Individual component responder rate, Pain (LOCF): 35.7%
  Pain composite responder rate, Sensitivity Analysis I (BOCF): 26.8%
  Pain composite responder rate, Sensitivity Analysis II: 27.2%
  Pain composite responder rate, Sensitivity Analysis III: 29.5%
[4]; 100 mg, 6 month, N = 224
  Pain composite responder rate, Primary Analysis (LOCF): 30.8%
[4]; 200 mg/day BID, treatment weeks 14-15 (3 month)
  Responders for the treatment of the pain of fibromyalgia, % = m/n: 55.0%
[4]; 200 mg/day BID, treatment weeks 14-15 (3 month), listed as Milnacipran
  Responders for the treatment of the pain of fibromyalgia, % = m/n: 55.00%
[4]; 200 mg/day BID, treatment weeks 26-27 (6 month)
  Responders for the treatment of the pain of fibromyalgia, % = m/n: 51.74% and 51.7%
[4]; 200 mg/day BID, treatment weeks 26-27 (6 month), listed as Milnacipran
  Responders for the treatment of the pain of fibromyalgia, % = m/n: 51.74%
[4]; 200 mg/day, treatment weeks 14-15, n = 260
  Responders for the treatment of the pain of fibromyalgia, m (number of responders): 143
[4]; 200 mg/day, treatment weeks 26-27, n = 230
  Responders for the treatment of the pain of fibromyalgia, m (number of responders): 119
[4]; 200 mg, 3 month
  Individual component responder rate, PGIC (LOCF): 50.6%
  Individual component responder rate, Pain (LOCF): 38.3%
  Pain composite responder rate, Sensitivity Analysis I (BOCF): 32.4%
  Pain composite responder rate, Sensitivity Analysis II: 32.7%
  Pain composite responder rate, Sensitivity Analysis III: 32.4%
[4]; 200 mg, 3 month, N = 441
  Pain composite responder rate, Primary Analysis (LOCF): 34.9%
[4]; 200 mg, 6 month
  Individual component responder rate, PGIC (LOCF): 49.9%
  Individual component responder rate, Pain (LOCF): 35.4%
  Pain composite responder rate, Sensitivity Analysis I (BOCF): 27.0%
  Pain composite responder rate, Sensitivity Analysis II: 28.6%
  Pain composite responder rate, Sensitivity Analysis III: 29.9%
[4]; 200 mg, 6 month, N = 441
  Pain composite responder rate, Primary Analysis (LOCF): 32.2%
Fibromyalgia patients [5]; 100 mg BID
  Acute (short-term) therapy for the symptom of pain in FMS: effective acute (short-term) therapy
Fibromyalgia patients [5]; BID vs QD, up to 200 mg/day
  Effect on fatigue, mood, global wellness, and function, BID compared with QD dosing: approximately equally effective
  Treating pain, twice-daily dosing compared with QD dosing: more effective in treating pain than QD dosing
Fibromyalgia patients [5]; both milnacipran treatment groups (BID and QD), up to 200 mg/day
  PGIC: completers who reported an improvement in their overall status: over 70%
Fibromyalgia patients [5]; milnacipran treatment groups, up to 200 mg/day
  PGIC: completers who reported worsening: 10%

## CN(C)CCC=C1c2ccccc2CCc2ccccc21 [amitriptyline]
[6]
  Subjects with significant clinical improvement: 21%
  Difference between treatment group and placebo: no difference

## CN(C)CCC=C1c2ccccc2C=Cc2ccccc21 [cyclobenzaprine]
[6]
  Subjects with significant clinical improvement: 12%
  Difference between treatment group and placebo: no difference

## COc1ccc(C(CN(C)C)C2(O)CCCCC2)cc1 (stereo not shown) [venlafaxine]
Patients with FMS; 11 completing patients
  Completing patients with insomnia requiring adjunctive medical therapy: 3 of 11
Patients with FMS; 15 patients, 11 completing
  Completing patients with a positive response (50% or greater improvement in two measurements of overall pain): Six of 11

— patent US20080058318A1 (priority 2006, published 2008)
